What was measured:
[1] = (§1) The drug is tested on Z-008 corresponding to metagenome with ENA study accession number: PRJEB37062 and ENA sample accession number: ERS12561808 for biotransformation under anaerobic condition. The drug concentrations were measured over 9 timepoints collected between 0 and 24 hours of incubation by liquid-chromatography-coupled mass spectrometry (LC–MS); conditions: 2 µM
[2] = human gut metagenome, 24 h, 2 µM
[3] = human gut metagenome, 24 h, 2 µM; remark: listed apart in the source
[4] = (§2) The drug is tested on WLS-052 corresponding to human gut metagenome with ENA study accession number: PRJEB37062 and ENA sample accession number: ERS12561747 for biotransformation under anaerobic condition. The drug concentrations were measured over 9 timepoints collected between 0 and 24 hours of incubation by liquid-chromatography-coupled mass spectrometry (LC–MS); conditions: 2 µM
[5] = as §2, with “WLS-073” for “WLS-052”, “ERS12561749” for “ERS12561747”; conditions: 2 µM
[6] = as §2, with “WLS-027” for “WLS-052”, “ERS12561744” for “ERS12561747”; conditions: 2 µM
[7] = human gut metagenome, 24 h, 2 µM; remark: listed apart in the source
[8] = as §2, with “WLS-039” for “WLS-052”, “ERS12561746” for “ERS12561747”; conditions: 2 µM
[9] = human gut metagenome, 24 h, 2 µM; remark: listed apart in the source
[10] = human gut metagenome, 24 h, 2 µM; remark: listed apart in the source
[11] = as §2, with “Z-006” for “WLS-052”, “mouse” for “human”, “ERS12561806” for “ERS12561747”; conditions: 2 µM
[12] = as §2, with “WLS-007” for “WLS-052”, “ERS12561742” for “ERS12561747”; conditions: 2 µM
[13] = human gut metagenome, 24 h, 2 µM; remark: listed apart in the source
[14] = as §2, with “WLS-370” for “WLS-052”, “ERS12561793” for “ERS12561747”; conditions: 2 µM
[15] = human gut metagenome, 24 h, 2 µM; remark: listed apart in the source
[16] = as §2, with “WLS-090” for “WLS-052”, “ERS12561753” for “ERS12561747”; conditions: 2 µM
[17] = as §2, with “Z-009” for “WLS-052”, “pig” for “human”, “ERS12561809” for “ERS12561747”; conditions: 2 µM
[18] = as §1, with “Z-005” for “Z-008”, “ERS12561805” for “ERS12561808”; conditions: 2 µM
[19] = as §2, with “Z-002” for “WLS-052”, “rabbit” for “human”, “ERS12561802” for “ERS12561747”; conditions: 2 µM
[20] = human gut metagenome, 24 h, 2 µM; remark: listed apart in the source
Further: call rule not given here.

Structure (SMILES)	Bacterial Biotransformation [1]	Bacterial Biotransformation [2]	Bacterial Biotransformation [3]	Bacterial Biotransformation [4]	Bacterial Biotransformation [5]	Bacterial Biotransformation [6]	Bacterial Biotransformation [7]	Bacterial Biotransformation [8]	Bacterial Biotransformation [9]	Bacterial Biotransformation [10]	Bacterial Biotransformation [11]	Bacterial Biotransformation [12]	Bacterial Biotransformation [13]	Bacterial Biotransformation [14]	Bacterial Biotransformation [15]	Bacterial Biotransformation [16]	Bacterial Biotransformation [17]	Bacterial Biotransformation [18]	Bacterial Biotransformation [19]	Bacterial Biotransformation [20]
CCOc1cc(CC(=O)N[C@@H](CC(C)C)c2ccccc2N2CCCCC2)ccc1C(=O)O [REPAGLINIDE]	Compound metabolized	Compound metabolized	Compound metabolized	Compound metabolized	Compound metabolized	Compound metabolized	Compound metabolized	Compound metabolized	Compound NOT metabolized	Compound metabolized	Compound metabolized	Compound metabolized	Compound metabolized	Compound metabolized	Compound metabolized	Compound metabolized	Compound metabolized	Compound metabolized	Compound metabolized	Compound metabolized
CC(N)C12CC3CC(CC(C3)C1)C2 (stereo not given) [RIMANTADINE]	Compound NOT metabolized	Compound NOT metabolized	Compound NOT metabolized	Compound NOT metabolized	Compound NOT metabolized	Compound NOT metabolized	Compound NOT metabolized	Compound NOT metabolized	Compound NOT metabolized	Compound NOT metabolized	Compound NOT metabolized	Compound NOT metabolized	Compound NOT metabolized	Compound NOT metabolized	Compound NOT metabolized	Compound NOT metabolized	Compound NOT metabolized	Compound NOT metabolized	Compound NOT metabolized	Compound NOT metabolized
CCN(C)C(=O)Oc1cccc([C@H](C)N(C)C)c1.O=C(O)C(O)C(O)C(=O)O [RIVASTIGMINE TARTRATE]	Compound NOT metabolized	Compound NOT metabolized	Compound NOT metabolized	Compound metabolized	Compound NOT metabolized	Compound NOT metabolized	Compound NOT metabolized	Compound metabolized	Compound NOT metabolized	Compound NOT metabolized	Compound NOT metabolized	Compound NOT metabolized	Compound metabolized	Compound NOT metabolized	Compound NOT metabolized	Compound NOT metabolized	Compound NOT metabolized	Compound NOT metabolized	Compound NOT metabolized	Compound NOT metabolized
CCCN(CCC)CCc1cccc2c1CC(=O)N2 [ROPINIROLE]	Compound NOT metabolized	Compound NOT metabolized	Compound metabolized	Compound NOT metabolized	Compound NOT metabolized	Compound NOT metabolized	Compound NOT metabolized	Compound NOT metabolized	Compound NOT metabolized	Compound NOT metabolized	Compound NOT metabolized	Compound NOT metabolized	Compound NOT metabolized	Compound NOT metabolized	Compound NOT metabolized	Compound metabolized	Compound NOT metabolized	Compound NOT metabolized	Compound metabolized	Compound NOT metabolized
O=C(O)CCC(=O)O.O=C(O[C@H]1CN2CCC1CC2)N1CCc2ccccc2[C@@H]1c1ccccc1 [SOLIFENACIN SUCCINATE]	Compound NOT metabolized	Compound metabolized	Compound metabolized	Compound NOT metabolized	Compound metabolized	Compound metabolized	Compound metabolized	Compound metabolized	Compound NOT metabolized	Compound NOT metabolized	Compound NOT metabolized	Compound metabolized	Compound NOT metabolized	Compound metabolized	Compound metabolized	Compound metabolized	Compound metabolized	Compound metabolized	Compound metabolized	Compound NOT metabolized
O=C(CCCN1CCC2(CC1)C(=O)NCN2c1ccccc1)c1ccc(F)cc1 [SPIPERONE]	Compound NOT metabolized	Compound NOT metabolized	Compound metabolized	Compound NOT metabolized	Compound NOT metabolized	Compound NOT metabolized	Compound NOT metabolized	Compound NOT metabolized	Compound NOT metabolized	Compound NOT metabolized	Compound NOT metabolized	Compound NOT metabolized	Compound metabolized	Compound NOT metabolized	Compound NOT metabolized	Compound NOT metabolized	Compound metabolized	Compound NOT metabolized	Compound NOT metabolized	Compound NOT metabolized

Results, then the compound that gave them:

Bacterial Biotransformation [1]	Bacterial Biotransformation [2]	Bacterial Biotransformation [3]	Bacterial Biotransformation [4]	Bacterial Biotransformation [5]	Bacterial Biotransformation [6]	Bacterial Biotransformation [7]	Bacterial Biotransformation [8]	Bacterial Biotransformation [9]	Bacterial Biotransformation [10]	Bacterial Biotransformation [11]	Bacterial Biotransformation [12]	Bacterial Biotransformation [13]	Bacterial Biotransformation [14]	Bacterial Biotransformation [15]	Bacterial Biotransformation [16]	Bacterial Biotransformation [17]	Bacterial Biotransformation [18]	Bacterial Biotransformation [19]	Bacterial Biotransformation [20]	Structure (SMILES)
Compound NOT metabolized	Compound NOT metabolized	Compound NOT metabolized	Compound NOT metabolized	Compound NOT metabolized	Compound NOT metabolized	Compound NOT metabolized	Compound NOT metabolized	Compound NOT metabolized	Compound NOT metabolized	Compound NOT metabolized	Compound NOT metabolized	Compound metabolized	Compound NOT metabolized	Compound NOT metabolized	Compound metabolized	Compound NOT metabolized	Compound NOT metabolized	Compound metabolized	Compound NOT metabolized	CCOc1ccccc1OCCN[C@H](C)Cc1ccc(OC)c(S(N)(=O)=O)c1.Cl [TAMSULOSIN HYDROCHLORIDE]
Compound NOT metabolized	Compound NOT metabolized	Compound metabolized	Compound NOT metabolized	Compound metabolized	Compound NOT metabolized	Compound metabolized	Compound NOT metabolized	Compound NOT metabolized	Compound NOT metabolized	Compound NOT metabolized	Compound metabolized	Compound metabolized	Compound NOT metabolized	Compound NOT metabolized	Compound metabolized	Compound metabolized	Compound metabolized	Compound NOT metabolized	Compound NOT metabolized	COc1cc2nc(N3CCN(C(=O)C4CCCO4)CC3)nc(N)c2cc1OC (stereo not given) [TERAZOSIN]

Source: ChEMBL document CHEMBL5724914, “Linking interpersonal differences in gut microbiota composition and drug biotransformation activity” (2024)
